According to patent US9597331B2, “Therapeutic compositions containing macitentan” (ACTELION PHARMACEUTICALS LTD, priority 2008, dated 2017):

System: pulmonary hypertensive male Wistar rats treated with monocrotaline
Assay: Acute effect on mean pulmonary arterial pressure in monocrotaline treated rats (monocrotaline model of pulmonary hypertension, variant 2)
Format: in vivo, rat
Settings: single administration, 25 to 30 days after monocrotaline, negative area = pressure decreases
Method: Male Wistar rats are purchased from Harlan (Netherlands) and maintained under conditions in accordance with local guidelines (Basel-Landschaft cantonal veterinary office). All rats are housed in climate-controlled conditions with a 12:12 hour light:dark cycle, and had free access to chow and water. A telemetry system is implanted under anaesthesia by inhalation of 2.5% isoflurane (in 70% O2+30% N2O). Under aseptic conditions, a pressure radio-frequency transmitter is implanted into the peritoneal cavity, and a sensing catheter is inserted in the pulmonary artery. The transmitter is sutured to the abdominal musculature and the skin is closed. […]
Four weeks after injection of MCT, the rats become pulmonary hypertensive and the respective effects of a single oral administration of Macitentan, of the compound having prostacyclin receptor (IP) agonist properties and of their combination can be evaluated on mean pulmonary arterial pressure. […]
Mean pulmonary arterial pressure was measured over time. […] Area Under Curve (AUC) was calculated for each group of rats after the oral administration of the different treatment(s) (a positive area being found if the mean pulmonary arterial blood pressure increases and a negative area being found if the mean pulmonary arterial blood pressure decreases).

Compound	AUC (Area Under Curve of mean pulmonary arterial pressure vs time) (NS-304 30 mg/kg per os)	AUC (Area Under Curve of mean pulmonary arterial pressure vs time) (macitentan 10 mg/kg per os)
CC(C)N(CCCCOCC(=O)NS(C)(=O)=O)c1cnc(-c2ccccc2)c(-c2ccccc2)n1 [NS-304, 2-{4-[(5,6-diphenylpyrazin-2-yl)(isopropyl)amino]butoxy}-N-(methylsulfonyl)acetamide]	−99 ± 128	
CCCNS(=O)(=O)Nc1ncnc(OCCOc2ncc(Br)cn2)c1-c1ccc(Br)cc1 [macitentan]		−381 ± 147
